{
  "source": "paper PMC4287394",
  "about": "(Clinical cancer research : an official journal of the …, 2014)",
  "assay": "Phase I safety: adverse events, DLT, MTD, RP2D",
  "assay_type": "in vivo, human",
  "conditions": "for Patients with DLT (grade 3 maculopapular rash): 21/28 schedule",
  "key": {"[1]": {"conditions": "330mg 21/28, 7 patients, grade ≥3"}, "[2]": {"conditions": "330mg 28/28, 10 patients, all grades"}, "[3]": {"conditions": "330mg 28/28, 10 patients, grade ≥3"}, "[4]": {"conditions": "330mg once-daily 28/28, 10 patients"}, "[5]": {"conditions": "340mg 28/28, 7 patients, all grades"}, "[6]": {"conditions": "340mg 28/28, 7 patients, grade ≥3"}, "[7]": {"conditions": "400mg 28/28, 1 patient, all grades"}, "[8]": {"conditions": "450mg 21/28, 3 patients, all grades"}, "[9]": {"conditions": "450mg 21/28, 3 patients, grade ≥3"}, "[10]": {"conditions": "all dose levels 21 or 28/28, 60 patients, all grades"}, "[11]": {"conditions": "all dose levels 21 or 28/28, 60 patients, grade ≥3"}},
  "note": "Values joined by “and” are separate entries in the source; they are usually repeats but may differ in a detail not shown here. Identical values can stand only once.",
  "data": [
    {"smiles": "CS(=O)(=O)N1CCN(Cc2cc3nc(-c4cccc5[nH]ncc45)nc(N4CCOCC4)c3s2)CC1", "note": "[pictilisib, 2-(1H-indazol-4-yl)-6-(4-methanesulfonyl-piperazin-1-ylmethyl)-4-morpholin-4-yl-t hieno[3,2-d]pyrimidine]", "values": [
      {"measurement": "Any treatment-related adverse event, no. of patients", "setting": "[1]", "value": 2},
      {"measurement": "Decreased appetite, no. of patients with treatment-related AE", "setting": "[1]", "value": 0},
      {"measurement": "Diarrhea, no. of patients with treatment-related AE", "setting": "[1]", "value": 0},
      {"measurement": "Dysgeusia, no. of patients with treatment-related AE", "setting": "[1]", "value": 0},
      {"measurement": "Fatigue, no. of patients with treatment-related AE", "setting": "[1]", "value": 0},
      {"measurement": "Nausea, no. of patients with treatment-related AE", "setting": "[1]", "value": 0},
      {"measurement": "Rash (all rash preferred terms), no. of patients with treatment-related AE", "setting": "[1]", "value": 1},
      {"measurement": "Vomiting, no. of patients with treatment-related AE", "setting": "[1]", "value": 0},
      {"measurement": "Xeroderma, no. of patients with treatment-related AE", "setting": "[1]", "value": 0},
      {"measurement": "Any treatment-related adverse event, no. of patients", "setting": "[2]", "value": 10},
      {"measurement": "Decreased appetite, no. of patients with treatment-related AE", "setting": "[2]", "value": 6},
      {"measurement": "Diarrhea, no. of patients with treatment-related AE", "setting": "[2]", "value": 7},
      {"measurement": "Dysgeusia, no. of patients with treatment-related AE", "setting": "[2]", "value": 5},
      {"measurement": "Fatigue, no. of patients with treatment-related AE", "setting": "[2]", "value": 6},
      {"measurement": "Nausea, no. of patients with treatment-related AE", "setting": "[2]", "value": 9},
      {"measurement": "Rash (all rash preferred terms), no. of patients with treatment-related AE", "setting": "[2]", "value": 4},
      {"measurement": "Vomiting, no. of patients with treatment-related AE", "setting": "[2]", "value": 3},
      {"measurement": "Xeroderma, no. of patients with treatment-related AE", "setting": "[2]", "value": 4},
      {"measurement": "Any treatment-related adverse event, no. of patients", "setting": "[3]", "value": 2},
      {"measurement": "Decreased appetite, no. of patients with treatment-related AE", "setting": "[3]", "value": 0},
      {"measurement": "Diarrhea, no. of patients with treatment-related AE", "setting": "[3]", "value": 1},
      {"measurement": "Dysgeusia, no. of patients with treatment-related AE", "setting": "[3]", "value": 0},
      {"measurement": "Fatigue, no. of patients with treatment-related AE", "setting": "[3]", "value": 0},
      {"measurement": "Nausea, no. of patients with treatment-related AE", "setting": "[3]", "value": 0},
      {"measurement": "Rash (all rash preferred terms), no. of patients with treatment-related AE", "setting": "[3]", "value": 2},
      {"measurement": "Vomiting, no. of patients with treatment-related AE", "setting": "[3]", "value": 0},
      {"measurement": "Xeroderma, no. of patients with treatment-related AE", "setting": "[3]", "value": 1},
      {"measurement": "Patients with grade 1 or 2 rash", "setting": "[4]", "value": 2},
      {"measurement": "Patients with grade 3 rash (after the DLT-defining window)", "setting": "[4]", "value": 2},
      {"measurement": "Patients with DLT (grade 3 maculopapular rash)", "setting": "330mg once-daily, 7 patients", "value": "1 of 7 and 1"},
      {"measurement": "Patients with grade 3 pneumonitis", "setting": "340mg", "value": 1},
      {"measurement": "Any treatment-related adverse event, no. of patients", "setting": "[5]", "value": 6},
      {"measurement": "Decreased appetite, no. of patients with treatment-related AE", "setting": "[5]", "value": 3},
      {"measurement": "Diarrhea, no. of patients with treatment-related AE", "setting": "[5]", "value": 1},
      {"measurement": "Dysgeusia, no. of patients with treatment-related AE", "setting": "[5]", "value": 2},
      {"measurement": "Fatigue, no. of patients with treatment-related AE", "setting": "[5]", "value": 3},
      {"measurement": "Nausea, no. of patients with treatment-related AE", "setting": "[5]", "value": 4},
      {"measurement": "Rash (all rash preferred terms), no. of patients with treatment-related AE", "setting": "[5]", "value": 1},
      {"measurement": "Vomiting, no. of patients with treatment-related AE", "setting": "[5]", "value": 4},
      {"measurement": "Xeroderma, no. of patients with treatment-related AE", "setting": "[5]", "value": 0},
      {"measurement": "Any treatment-related adverse event, no. of patients", "setting": "[6]", "value": 2},
      {"measurement": "Decreased appetite, no. of patients with treatment-related AE", "setting": "[6]", "value": 0},
      {"measurement": "Diarrhea, no. of patients with treatment-related AE", "setting": "[6]", "value": 0},
      {"measurement": "Dysgeusia, no. of patients with treatment-related AE", "setting": "[6]", "value": 0},
      {"measurement": "Fatigue, no. of patients with treatment-related AE", "setting": "[6]", "value": 0},
      {"measurement": "Nausea, no. of patients with treatment-related AE", "setting": "[6]", "value": 0},
      {"measurement": "Rash (all rash preferred terms), no. of patients with treatment-related AE", "setting": "[6]", "value": 0},
      {"measurement": "Vomiting, no. of patients with treatment-related AE", "setting": "[6]", "value": 0},
      {"measurement": "Xeroderma, no. of patients with treatment-related AE", "setting": "[6]", "value": 0},
      {"measurement": "Any treatment-related adverse event, no. of patients", "setting": "[7]", "value": 1},
      {"measurement": "Decreased appetite, no. of patients with treatment-related AE", "setting": "[7]", "value": 0},
      {"measurement": "Diarrhea, no. of patients with treatment-related AE", "setting": "[7]", "value": 0},
      {"measurement": "Dysgeusia, no. of patients with treatment-related AE", "setting": "[7]", "value": 0},
      {"measurement": "Fatigue, no. of patients with treatment-related AE", "setting": "[7]", "value": 1},
      {"measurement": "Nausea, no. of patients with treatment-related AE", "setting": "[7]", "value": 1},
      {"measurement": "Rash (all rash preferred terms), no. of patients with treatment-related AE", "setting": "[7]", "value": 1},
      {"measurement": "Vomiting, no. of patients with treatment-related AE", "setting": "[7]", "value": 0},
      {"measurement": "Xeroderma, no. of patients with treatment-related AE", "setting": "[7]", "value": 0},
      {"measurement": "Any treatment-related adverse event, no. of patients", "setting": "[8]", "value": 3},
      {"measurement": "Decreased appetite, no. of patients with treatment-related AE", "setting": "[8]", "value": 1},
      {"measurement": "Diarrhea, no. of patients with treatment-related AE", "setting": "[8]", "value": 0},
      {"measurement": "Dysgeusia, no. of patients with treatment-related AE", "setting": "[8]", "value": 1},
      {"measurement": "Fatigue, no. of patients with treatment-related AE", "setting": "[8]", "value": 2},
      {"measurement": "Nausea, no. of patients with treatment-related AE", "setting": "[8]", "value": 2},
      {"measurement": "Rash (all rash preferred terms), no. of patients with treatment-related AE", "setting": "[8]", "value": 3},
      {"measurement": "Vomiting, no. of patients with treatment-related AE", "setting": "[8]", "value": 2},
      {"measurement": "Xeroderma, no. of patients with treatment-related AE", "setting": "[8]", "value": 1},
      {"measurement": "Any treatment-related adverse event, no. of patients", "setting": "[9]", "value": 2},
      {"measurement": "Decreased appetite, no. of patients with treatment-related AE", "setting": "[9]", "value": 0},
      {"measurement": "Diarrhea, no. of patients with treatment-related AE", "setting": "[9]", "value": 0},
      {"measurement": "Dysgeusia, no. of patients with treatment-related AE", "setting": "[9]", "value": 0},
      {"measurement": "Fatigue, no. of patients with treatment-related AE", "setting": "[9]", "value": 0},
      {"measurement": "Nausea, no. of patients with treatment-related AE", "setting": "[9]", "value": 0},
      {"measurement": "Rash (all rash preferred terms), no. of patients with treatment-related AE", "setting": "[9]", "value": 2},
      {"measurement": "Vomiting, no. of patients with treatment-related AE", "setting": "[9]", "value": 0},
      {"measurement": "Xeroderma, no. of patients with treatment-related AE", "setting": "[9]", "value": 0},
      {"measurement": "Time of presentation of DLT rash after commencement of daily dosing", "setting": "450mg once-daily 21/28", "value": "approximately 2 weeks"},
      {"measurement": "Time to spontaneous resolution of DLT rash after treatment discontinuation", "setting": "450mg once-daily 21/28", "value": 2, "unit": "weeks"},
      {"measurement": "Body surface area covered by DLT maculopapular rash", "setting": "450mg once-daily 21/28, 2 patients", "value": "70-80%"},
      {"measurement": "Patients with DLT (grade 3 maculopapular rash)", "setting": "450mg once-daily, 3 patients", "value": "2 of 3 and 2"},
      {"measurement": "DLT on continuous schedule", "setting": "28/28 schedule (330mg, 340mg, 400mg)", "value": "no DLT was observed"},
      {"measurement": "Treatment-related deaths", "setting": "all 60 patients", "value": "no treatment-related deaths"},
      {"measurement": "Decreased appetite, no. of patients with treatment-related AE", "setting": "[10]", "value": 14},
      {"measurement": "Fatigue, no. of patients with treatment-related AE", "setting": "[10]", "value": 21},
      {"measurement": "Nausea, no. of patients with treatment-related AE", "setting": "[10]", "value": 28},
      {"measurement": "Rash (all rash preferred terms), no. of patients with treatment-related AE", "setting": "[10]", "value": 14},
      {"measurement": "Vomiting, no. of patients with treatment-related AE", "setting": "[10]", "value": 15},
      {"measurement": "Xeroderma, no. of patients with treatment-related AE", "setting": "[10]", "value": 8},
      {"measurement": "Any treatment-related adverse event, no. of patients", "setting": "[11]", "value": 9},
      {"measurement": "Decreased appetite, no. of patients with treatment-related AE", "setting": "[11]", "value": 0},
      {"measurement": "Diarrhea, no. of patients with treatment-related AE", "setting": "[11]", "value": 1},
      {"measurement": "Dysgeusia, no. of patients with treatment-related AE", "setting": "[11]", "value": 0},
      {"measurement": "Fatigue, no. of patients with treatment-related AE", "setting": "[11]", "value": 0},
      {"measurement": "Nausea, no. of patients with treatment-related AE", "setting": "[11]", "value": 0},
      {"measurement": "Rash (all rash preferred terms), no. of patients with treatment-related AE", "setting": "[11]", "value": 5},
      {"measurement": "Vomiting, no. of patients with treatment-related AE", "setting": "[11]", "value": 0},
      {"measurement": "Xeroderma, no. of patients with treatment-related AE", "setting": "[11]", "value": 1},
      {"measurement": "Recommended Phase II dose (RP2D)", "setting": "continuous once-daily oral dosing", "value": 330, "unit": "mg"},
      {"measurement": "Tolerability", "setting": "up to 330mg (21/28 schedule)", "value": "well-tolerated"},
      {"measurement": "Patients with grade ≥3 hyperglycemia", "setting": "whole study", "value": 1}
    ]}
  ]
}
